Results on nine compounds are retold here after PubChem BioAssay AID1890 (The Scripps Research Institute Molecular Screening Center, 2009).

By IC50 is commonly meant the concentration that gives 50% inhibition.

Active and inactive are the calls of the source. The rule behind the calls is not given here.

This test has as its target Replicase polyprotein 1ab (Severe acute respiratory syndrome coronavirus) (UniProt P0C6X7). Kind of test: SARS 3CLpro cleavage inhibition IC50 – biochemical, quenched FRET, dose response (AID 1890). The settings on record: purified 3CLpro, quenched FRET peptide cleavage.
For the compound `O=C1NC(=O)N(c2ccccc2F)C(=O)/C1=C/c1cn(CC(=O)N2CCOCC2)c2ccccc12`, the IC50 result is “inactive”. To `COC(=O)c1ccc(OC(=O)CN2C(=O)c3ccccc3C2=O)cc1` belongs > 59.6 µM (inactive); to `Cc1cc(C)c(C)c(S(=O)(=O)N2CCN(C(=O)c3cc(=O)[nH]c4ccccc34)CC2)c1C`, 4.83 µM. `COc1cc(C2CC(c3cccs3)=NN2C(=O)CCl)ccc1OC(F)F` (centres undefined): the IC50 was 2.8 µM. In the case of `COc1cc(/C=N\NC(=O)Cn2nnc3ccccc32)cc(OC)c1OC`, the IC50 was 5.18 µM. `CC(C)c1ccc(N(C(=O)c2csnn2)C(C(=O)NC2CCCC2)c2cccnc2)cc1` (centres undefined): the IC50 entry is “inactive”.

As for `CC(=O)NC1C(=O)N(CCN2CCOCC2)c2ccc(Br)cc21` (centres undefined), the IC50 was 7.58 µM. To `Cc1cc(=O)oc2cc(NC(=O)Cc3ccccc3[N+](=O)[O-])ccc12` belongs > 59.6 µM (inactive); to `Cc1ccc(C(=O)n2cnc3ccccc32)cc1C`, “inactive”.
